Where no end group is shown, it is not given here.

The text below walks through data of patent publication US5223482A, “Recombinant Alzheimer's protease inhibitory amyloid protein and method of use” (Scios Nova Inc., priority 1989, dated 1993).

Holding throughout (format): biochemical
For one experiment, the target named is chymotrypsin. The experiment is described as follows: Kinetics of inhibition (Ki) of the protease inhibitor for chymotrypsin. How it is done:
(§1) The analogs of the present protease inhibitors are constructed from oligonucleotides containing the specific codons encoding the desired amino acid at this location, using site-specific mutagenesis techniques as are known in the art. The desired activities of the analogs thus constructed are assayed using the appropriate enzyme, for example, either trypsin, chymotrypsin or elastase as the standard in one of the respective assays using, for example, the trypsin or chymotrypsin assays described in Tan, N. H. Biochem (1977) 16:1531-1541 and the elastase assays Barrett, A. J. (1981) in Methods in Enzymology vol. 80, L. Lorand ed., Academic Press, New York. The activity of the analogs may be compared with that of the natural protease inhibitor of the invention.

The target in experiment [1] is trypsin. Description: Kinetics of inhibition (Ki) of the protease inhibitor for trypsin. The method, then: as §1
Experiment [2] concerns trypsin. The experiment is described as follows: Trypsin inhibition assay (hydrolysis of N-benzoyl-D-arginine-p-nitroaniline, release of pNA). Particulars: HPLC peaks of the trypsin affinity column eluate. The method, then: All 8 oligonucleotides encoding either the phoA or ompA fusions were mixed together and treated with ligase. […] The ligated constructs were then ligated into the NdeI-HindIII sites of the vector pTRP233. The ligated vectors were transfected into E. coli strain MC1061 and Amp^R colonies selected. […] Miniprep DNA was used to transfect strains W3110 and JE5505. Small scale cultures of each of the three strains were grown and induced with IAA overnight. Culture supernatants were examined for trypsin inhibitory acitvity. Trypsin is assayed for its ability to hydrolyze the synthetic substrate N-benzoyl-D-arginine-p-nitroaniline to release p-nitroaniline (pNA). The release of pNA as a function of time is easily monitored in a spectrophotomer and can be quantitated to measure trypsin activity. The inhibitor is detected in this assay by virtue of its ability to bind to trypsin and prevent hydrolysis of the substrate by trypsin. Inhibitory activity wad detected in the culture medium for both ompA and phoA constructs in JE5505 but not W3110 or MC1601. Expression levels appeared to be higher with the phoA construct and so only this construct was used for subsequent experiments.

As for “natural protease inhibitor: 57 amino acid Kunitz-type protease inhibitor, residues 289 through 345 of the λAPCP168i4 β-amyloid-related protein (EVCSEQAETGPCRAMISRWYFDVTEGKCAPFFYGGCGGNRNNFDTEEYCMAVCGSAM; Kunitz inhibitor domain; UniProt P05067 289-345, looked up, fragment)”, the values for the Ki at chymotrypsin and on trypsin [1] were 8.5 nM and 3 nM, respectively.

Take “peak 4: major HPLC peak of the purified inhibitor; mass consistent with full length A4i with 3 disulfide bridges (EVCSEQAETGPCRAMISRWYFDVTEGKCAPFFYGGCGGNRNNFDTEEYCMAVCGSAM; disulfide (positions not given here); UniProt P05067 289-345, looked up, fragment)”: in the experiment with trypsin [2], the “activity in the trypsin inhibition assay” value was “active”.

One may read the Ki as a dissociation constant, usually derived from enzyme kinetics or from competition with a known ligand. High values mean lower affinity, low ones higher affinity.
